Measured values: ChEMBL document CHEMBL4014283, “Structural insights of SmKDAC8 inhibitors: Targeting Schistosoma epigenetics through a combined structure-based 3D QSAR, in vitro and synthesis strategy” (Bioorg Med Chem, 2017)
The source made the active and inactive calls. The calls are words filed in the database; no cut-off is given here.

Columns and labels:
Histone deacetylase 8 = biological target: T1, Histone deacetylase 8 (Schistosoma mansoni, UniProt A5H660); assay: Inhibition of Schistosoma mansoni KDAC8 using (FAM)-labeled peptide as substrate after 60 mins by microfluidic assay; conditions: read-out: IC50
T1 sequence (A5H660 whole entry): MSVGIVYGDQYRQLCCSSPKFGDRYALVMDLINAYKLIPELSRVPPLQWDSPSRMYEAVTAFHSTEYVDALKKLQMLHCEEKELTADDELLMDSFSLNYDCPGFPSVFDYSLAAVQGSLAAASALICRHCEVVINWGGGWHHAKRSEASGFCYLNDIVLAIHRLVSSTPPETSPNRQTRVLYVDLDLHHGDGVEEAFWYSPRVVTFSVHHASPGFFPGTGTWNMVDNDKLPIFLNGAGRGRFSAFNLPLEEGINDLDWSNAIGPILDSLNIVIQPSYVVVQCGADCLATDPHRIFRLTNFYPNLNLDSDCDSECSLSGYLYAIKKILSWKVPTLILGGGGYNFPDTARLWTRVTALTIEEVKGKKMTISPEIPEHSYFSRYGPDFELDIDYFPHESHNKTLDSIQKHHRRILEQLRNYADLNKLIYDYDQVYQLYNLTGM

[1] = biological target: T2, Histone deacetylase 8 (Schistosoma mansoni) (UniProt A5H660); assay: Inhibition of Schistosoma mansoni KDAC8 at 30 uM using (FAM)-labeled peptide as substrate after 60 mins by microfluidic assay
T2 sequence (whole entry): T1 sequence (A5H660 whole entry)

`CC(C)(C)Oc1ccc(C[C@@H]2N=C(c3ccccc3)c3ccccc3N(CCCCC(=O)NO)C2=O)cc1` gave an IC50 (Histone deacetylase 8) of 10.3 µM and an inhibition [1] of 74%.
For `CSCC[C@@H]1N=C(c2ccccc2)c2ccccc2N(CCCCC(=O)O)C1=O`, the IC50 (Histone deacetylase 8) was > 30 µM and the inhibition [1] was 0%.
With `COC(=O)CCCCN1C(=O)[C@H]([C@@H](C)OCc2ccccc2)N=C(c2ccccc2)c2ccccc21` the IC50 (Histone deacetylase 8) was > 30 µM and the inhibition [1] was 0%.
For `CC(C)(C)OC(=O)CC[C@@H]1N=C(c2ccccc2)c2ccccc2N(CCCCC(=O)NO)C1=O`, the IC50 (Histone deacetylase 8) was > 30 µM and the inhibition [1] was 24.9%.
`C[C@@H]1N=C(c2ccccc2)c2ccccc2NC1=O` was tested, and the IC50 (Histone deacetylase 8) was > 30 µM and the inhibition [1] was 0%.
For `O=C(O)CCCCN1C(=O)[C@H](Cc2ccccc2)N=C(c2ccccc2)c2ccccc21`, the IC50 (Histone deacetylase 8) was > 30 µM and the inhibition [1] was 0%.
For `CC[C@H](C)[C@@H]1N=C(c2ccccc2)c2ccccc2NC1=O`, the IC50 (Histone deacetylase 8) was > 30 µM and the inhibition [1] was 0%.
For `CC(C)[C@@H]1NC(=O)[C@H]2CCCN2C(=O)[C@@H]2CCCN2C(=O)C[C@H](C(=O)NCCCC(=O)NO)NC1=O`, the IC50 (Histone deacetylase 8) was > 30 µM and the inhibition [1] was < 26%.
`C[C@H](OCc1ccccc1)[C@@H]1N=C(c2ccccc2)c2ccccc2N(CCCCC(=O)O)C1=O` was tested, and the IC50 (Histone deacetylase 8) was > 30 µM and the inhibition [1] was 0%.
For `O=C(CCCCN1C(=O)[C@H](CO)N=C(c2ccccc2)c2ccccc21)NO`, the IC50 (Histone deacetylase 8) was > 30 µM and the inhibition [1] was 0.46%.
With `CSCC[C@@H]1N=C(c2ccccc2)c2ccccc2N(CCCCC(=O)NO)C1=O` the IC50 (Histone deacetylase 8) was > 30 µM and the inhibition [1] was 19.3%.
In the case of `O=C1Nc2ccccc2C(c2ccccc2)=N[C@H]1Cc1ccccc1`, the IC50 (Histone deacetylase 8) is reported as > 30 µM and the inhibition [1] is reported as 0%.
For `CC(C)C[C@@H]1N=C(c2ccccc2)c2ccccc2NC1=O`, the IC50 (Histone deacetylase 8) was > 30 µM and the inhibition [1] was 0%.
`CC(C)(C)SC[C@H]1N=C(c2ccccc2)c2ccccc2N(CCCCC(=O)NO)C1=O` was tested, and the IC50 (Histone deacetylase 8) was > 30 µM and the inhibition [1] was 18.5%.
In the case of `Nc1ccccc1NC(=O)c1ccc(CNC(=O)OCc2cccnc2)cc1` [ENTINOSTAT], the IC50 (Histone deacetylase 8) is reported as > 30 µM and the inhibition [1] is reported as “inactive”.
In the case of `O=C(CCCNC(=O)CC[C@@H]1N=C(c2ccccc2)c2ccccc2NC1=O)NO`, the IC50 (Histone deacetylase 8) is reported as 6.53 µM and the inhibition [1] is reported as 81.7%.
`CC(C)C[C@@H]1N=C(c2ccccc2)c2ccccc2N(CCCCC(=O)NO)C1=O` was tested, and the IC50 (Histone deacetylase 8) was > 30 µM and the inhibition [1] was 23.1%.
In the case of `CC(C)(C)OC[C@@H]1N=C(c2ccccc2)c2ccccc2N(CCCCC(=O)NO)C1=O`, the IC50 (Histone deacetylase 8) is reported as > 30 µM and the inhibition [1] is reported as 15.7%.
`N=C(N)NCCC[C@@H]1N=C(c2ccccc2)c2ccccc2N(CCCCC(=O)NO)C1=O` was tested, and the IC50 (Histone deacetylase 8) was > 30 µM and the inhibition [1] was 23.5%.
In the case of `COC(=O)CCCCN1C(=O)[C@H](C(C)C)N=C(c2ccccc2)c2ccccc21`, the IC50 (Histone deacetylase 8) is reported as > 30 µM and the inhibition [1] is reported as 0%.
With `CC(C)(C)OC(=O)C[C@@H]1N=C(c2ccccc2)c2ccccc2N(CCCCC(=O)O)C1=O` the IC50 (Histone deacetylase 8) was > 30 µM and the inhibition [1] was 0%.
With `CC(C)(C)Oc1ccc(C[C@@H]2N=C(c3ccccc3)c3ccccc3N(CCCCC(=O)O)C2=O)cc1` the IC50 (Histone deacetylase 8) was > 30 µM and the inhibition [1] was 0%.
In the case of `COC(=O)CCCCN1C(=O)[C@H](C)N=C(c2ccccc2)c2ccccc21`, the IC50 (Histone deacetylase 8) is reported as > 30 µM and the inhibition [1] is reported as 0%.
For `CC(C)[C@@H]1N=C(c2ccccc2)c2ccccc2N(CCCCC(=O)NO)C1=O`, the IC50 (Histone deacetylase 8) was > 30 µM and the inhibition [1] was 20.6%.
`O=C(CCCCN1C(=O)[C@H](Cc2cncn2C(c2ccccc2)(c2ccccc2)c2ccccc2)N=C(c2ccccc2)c2ccccc21)NO` was tested, and the IC50 (Histone deacetylase 8) was > 30 µM and the inhibition [1] was 3.81%.
In the case of `O=C(CC[C@@H]1N=C(c2ccccc2)c2ccccc2NC1=O)NC(c1ccccc1)(c1ccccc1)c1ccccc1`, the IC50 (Histone deacetylase 8) is reported as > 30 µM and the inhibition [1] is reported as 10.4%.
In the case of `CC(C)C[C@@H]1N=C(c2ccccc2)c2ccccc2N(CCCCC(=O)O)C1=O`, the IC50 (Histone deacetylase 8) is reported as > 30 µM and the inhibition [1] is reported as 0%.
In the case of `CC(C)(C)SC[C@H]1N=C(c2ccccc2)c2ccccc2N(CCCCC(=O)O)C1=O`, the IC50 (Histone deacetylase 8) is reported as > 30 µM and the inhibition [1] is reported as 0%.
`CC(C)(C)SC[C@H]1N=C(c2ccccc2)c2ccccc2NC1=O` was tested, and the IC50 (Histone deacetylase 8) was > 30 µM and the inhibition [1] was 0%.
In the case of `O=C(C[C@@H]1N=C(c2ccccc2)c2ccccc2NC1=O)NC(c1ccccc1)(c1ccccc1)c1ccccc1`, the IC50 (Histone deacetylase 8) is reported as > 30 µM and the inhibition [1] is reported as 0%.
`Cc1c(C)c(S(=O)(=O)NC(=N)NCCC[C@@H]2N=C(c3ccccc3)c3ccccc3N(CCCCC(=O)O)C2=O)c(C)c2c1OC(C)(C)C2` was tested, and the IC50 (Histone deacetylase 8) was > 30 µM and the inhibition [1] was 0%.
`C[C@@H]1N=C(c2ccccc2)c2ccccc2N(CCCCC(=O)O)C1=O` was tested, and the IC50 (Histone deacetylase 8) was > 30 µM and the inhibition [1] was 0%.
In the case of `COC(=O)CCCCN1C(=O)[C@H](Cc2cc3ccccc3n2C(=O)OC(C)(C)C)N=C(c2ccccc2)c2ccccc21`, the IC50 (Histone deacetylase 8) is reported as > 30 µM and the inhibition [1] is reported as 0%.
In the case of `COC(=O)CCCCN1C(=O)CN=C(c2ccccc2)c2ccccc21`, the IC50 (Histone deacetylase 8) is reported as > 30 µM and the inhibition [1] is reported as 0%.
In the case of `O=C(CC[C@@H]1N=C(c2ccccc2)c2ccccc2NC1=O)NO`, the IC50 (Histone deacetylase 8) is reported as > 30 µM and the inhibition [1] is reported as 25.9%.
`O=C(CCCCN1C(=O)[C@H](Cc2ccc(O)cc2)N=C(c2ccccc2)c2ccccc21)NO` was tested, and the IC50 (Histone deacetylase 8) was > 30 µM and the inhibition [1] was 0%.
For `CC(C)(C)OC(=O)NCCCC[C@@H]1N=C(c2ccccc2)c2ccccc2N(CCCCC(=O)NO)C1=O`, the IC50 (Histone deacetylase 8) was > 30 µM and the inhibition [1] was 25.1%.
With `O=C(O)C[C@@H]1N=C(c2ccccc2)c2ccccc2N(CCCCC(=O)NO)C1=O` the IC50 (Histone deacetylase 8) was > 30 µM and the inhibition [1] was 12.4%.
For `Cc1c(C)c(S(=O)(=O)NC(=N)NCCC[C@@H]2N=C(c3ccccc3)c3ccccc3NC2=O)c(C)c2c1OC(C)(C)C2`, the IC50 (Histone deacetylase 8) was > 30 µM and the inhibition [1] was 0%.
In the case of `O=C(CCCCN1C(=O)[C@H](Cc2cc3ccccc3[nH]2)N=C(c2ccccc2)c2ccccc21)NO`, the IC50 (Histone deacetylase 8) is reported as > 30 µM and the inhibition [1] is reported as 19.7%.
`O=C(CCCCN1C(=O)[C@@H](CS)N=C(c2ccccc2)c2ccccc21)NO` was tested, and the IC50 (Histone deacetylase 8) was 20.9 µM and the inhibition [1] was 57%.
With `CC(C)[C@@H]1NC(=O)[C@@H]2CCCN2C(=O)[C@@H]2CCCN2C(=O)C[C@@H](C(=O)NCCCC(=O)NO)NC1=O` the IC50 (Histone deacetylase 8) was > 30 µM and the inhibition [1] was 32%.
With `O=C(O)CC[C@@H]1N=C(c2ccccc2)c2ccccc2NC1=O` the IC50 (Histone deacetylase 8) was > 30 µM and the inhibition [1] was 0%.
In the case of `Nc1ccccc1NC(=O)c1ccc(-c2cn(CCc3ccsc3)nn2)cc1`, the IC50 (Histone deacetylase 8) is reported as > 30 µM and the inhibition [1] is reported as “inactive”.
With `CC(C)(C)OC(=O)C[C@@H]1N=C(c2ccccc2)c2ccccc2NC1=O` the IC50 (Histone deacetylase 8) was > 30 µM and the inhibition [1] was 0%.
With `COC(=O)CCCCN1C(=O)[C@H](CCC(=O)NC(c2ccccc2)(c2ccccc2)c2ccccc2)N=C(c2ccccc2)c2ccccc21` the IC50 (Histone deacetylase 8) was > 30 µM and the inhibition [1] was 0%.
For `COC(=O)CCCCN1C(=O)[C@@H](CSC(C)(C)C)N=C(c2ccccc2)c2ccccc21`, the IC50 (Histone deacetylase 8) was > 30 µM and the inhibition [1] was 0%.
In the case of `CC(C)(C)OC(=O)n1c(C[C@@H]2N=C(c3ccccc3)c3ccccc3N(CCCCC(=O)NO)C2=O)cc2ccccc21`, the IC50 (Histone deacetylase 8) is reported as > 30 µM and the inhibition [1] is reported as 12.5%.
For `C[C@@H](OCc1ccccc1)[C@@H]1N=C(c2ccccc2)c2ccccc2N(CCCCC(=O)NO)C1=O`, the IC50 (Histone deacetylase 8) was > 30 µM and the inhibition [1] was 20.5%.
`NC(=O)CC[C@@H]1N=C(c2ccccc2)c2ccccc2N(CCCCC(=O)NO)C1=O` was tested, and the IC50 (Histone deacetylase 8) was > 30 µM and the inhibition [1] was 11.6%.
In the case of `COC(=O)CCCCN1C(=O)[C@H](CC(=O)NC(c2ccccc2)(c2ccccc2)c2ccccc2)N=C(c2ccccc2)c2ccccc21`, the IC50 (Histone deacetylase 8) is reported as > 30 µM and the inhibition [1] is reported as 2.19%.
For `CC(C)[C@@H]1NC(=O)[C@H]2CCCN2C(=O)[C@@H]2CCCN2C(=O)C[C@@H](C(=O)NCCCC(=O)NO)NC1=O`, the IC50 (Histone deacetylase 8) was > 30 µM and the inhibition [1] was 21 to 31.9%.
In the case of `O=C(CCCCN1C(=O)[C@H](CCC(=O)NO)N=C(c2ccccc2)c2ccccc21)NO`, the IC50 (Histone deacetylase 8) is reported as > 30 µM and the inhibition [1] is reported as 33.5%.
`O=C(C[C@@H]1N=C(c2ccccc2)c2ccccc2NC1=O)NO` was tested, and the IC50 (Histone deacetylase 8) was > 30 µM and the inhibition [1] was 0%.
In the case of `O=C(CCCCN1C(=O)[C@H](Cc2ccccc2)N=C(c2ccccc2)c2ccccc21)NO`, the IC50 (Histone deacetylase 8) is reported as > 30 µM and the inhibition [1] is reported as 14.4%.
In the case of `CC(C)(C)OC[C@@H]1N=C(c2ccccc2)c2ccccc2N(CCCCC(=O)O)C1=O`, the IC50 (Histone deacetylase 8) is reported as > 30 µM and the inhibition [1] is reported as 0%.
In the case of `O=C(C[C@H]1N=C(c2ccccc2)c2ccccc2NC1=O)NO`, the IC50 (Histone deacetylase 8) is reported as > 30 µM and the inhibition [1] is reported as 0%.
